Literature values in US20080221049A1, “Free-flowing lyophilized tobramycin formulation” (APP Pharmaceuticals, LLC., priority 2004, published 2008).
Counter-ions that a name gives are not always drawn. Like-named read-outs stand apart in the source and are kept apart here.

Settings: after reconstitution, e.g. with 30 mL Sterile Water for Injection

NCC1OC(OC2C(N)CC(N)C(OC3OC(CO)C(O)C(N)C3O)C2O)C(N)CC1O [Tobramycin sulfate, 0-3-amino-3-deoxy-α-D-glucopyranosyl-(1→4) —O—[2,6-diamino-2,3,6-trideoxy-α-D-ribo-hexopyranosyl-(1→6)]-2-deoxy-L-streptamine, sulfate (2:5)(salt)]
time within which the reconstituted solution should be used (stored at room temperature): ≤ 24 h
time within which the reconstituted solution should be used (stored under refrigeration): ≤ 96 h
